Structures are written as SMILES. Activity calls are given as the source filed them. The rule behind the calls is not given here.

Format in all cases: functional, organism-based
In assay [1] the test system is Mus musculus. Description: Immunomodulatory activity in ip dosed mouse lung assessed as reduction of eosinophils in bronchoalveolar lavage fluid.
Assay [2] relates to Mus musculus. Description: Antiinflammatory activity against collagen-induced arthritis in po dosed mouse assessed as inhibition of paw edema at 20 mg/kg, po after 20 days. Further details: dose 20 mg/kg.
In assay [3] the test system is Mus musculus. Description: Antiinflammatory activity against collagen-induced arthritis in po dosed mouse assessed as synovial cell hyperplasia after 20 days.
Assay [4] relates to Mus musculus. The experiment in a line: Immunomodulatory activity in mouse assessed as inhibition of allergic airway inflammation at 60 mg/kg, ip. The arrangement: dose 60 mg/kg.
Assay [5] deals with Mus musculus. The experiment in a line: Immunomodulatory activity in ip dosed mouse lung assessed as reduction in inhibition of ovalbumin-induced intense cell filtration.
Assay [6] has as its system Mus musculus. The experiment in a line: Immunomodulatory activity in ip dosed mouse lung assessed as reduction in modulation of mucus production at 60 mg/kg. The arrangement: dose 60 mg/kg.
The species named for assay [7] is Mus musculus. The experiment in a line: Immunomodulatory activity in mouse assessed as reduction in ovalbumin-induced TH2 cytokine secretion by ELISA. (An ELISA detects its analyte on a solid surface through an enzyme-linked reagent.)

For the compound `C[C@@H]1C[C@H]2[C@@H]3CCC4=CC(=O)C=C[C@]4(C)[C@@]3(F)[C@@H](O)C[C@]2(C)[C@@]1(O)C(=O)CO`, the result in assay [1] was Active.

For `C[C@@]12C[C@H]3OC(=O)[C@@H]1CO[C@]14O[C@]5([C@H]2C1=O)[C@@](O)(CC[C@H]1[C@H]4C[C@H]2O[C@]24CC=CC(=O)[C@]14C)C(=O)O[C@@]35C`, the inhibition result in assay [2] and in assay [5] was “Active” throughout. Also, the outcome in assay [3] was Active. For the same compound, the inhibition result in assay [4] is “inactive”. Moreover, the outcome in assay [1], in assay [6] and in assay [7] was inactive.

These data come from ChEMBL document CHEMBL1212907, “Activity of physalin F in a collagen-induced arthritis model” (J Nat Prod, 2010).
